Laboratory results reported in the supplement of paper PMC10307832.

Tests used:
Assay in all cases: relative viability (nuclei count vs DMSO), 5 days (fraction); higher = more cells survive
Irinotecan + Pictilisib = compound: CCc1c2c(nc3ccc(OC(=O)N4CCC(N5CCCCC5)CC4)cc13)-c1cc3c(c(=O)n1C2)COC(=O)[C@]3(O)CC [Irinotecan] + CS(=O)(=O)N1CCN(Cc2cc3nc(-c4cccc5[nH]ncc45)nc(N4CCOCC4)c3s2)CC1 [Pictilisib] (partner 1 µM)
Summary of the method: (§1)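 Nuclei were stained with Hoechst during a one-step fixation (final 0.05% Triton X-100, 1% formaldehyde, 1 ug/ml Hoechst) carried out 5 days after dosing, then counted on 4× images. The cells, lung cancer lines in 1536-well plates, had been dosed by pin tool the day after seeding with one drug alone or a fixed anchor-drug dose plus five library-drug doses (not always all listed) in √10 steps. Relative viability is the nuclei count in treated wells divided by that in vehicle wells, and each value is the median of duplicate plates.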

RU-SKI 43 + Trametinib = compound: CC[C@@H](C)CNCC(=O)N1CCC2=C([C@@H]1COC3=CC=CC(=C3)C)C=CS2 [RU-SKI 43] + CC(=O)Nc1cccc(-n2c(=O)n(C3CC3)c(=O)c3c(Nc4ccc(I)cc4F)n(C)c(=O)c(C)c32)c1 [Trametinib] (partner 0.02 µM)
Summary of the method: as §1

Irinotecan + Olaparib = compound: CCc1c2c(nc3ccc(OC(=O)N4CCC(N5CCCCC5)CC4)cc13)-c1cc3c(c(=O)n1C2)COC(=O)[C@]3(O)CC [Irinotecan] + O=C(c1cc(Cc2n[nH]c(=O)c3ccccc23)ccc1F)N1CCN(C(=O)C2CC2)CC1 [Olaparib] (partner 8 µM)
Summary of the method: as §1

RU-SKI 43 + Crizotinib = compound: CC[C@@H](C)CNCC(=O)N1CCC2=C([C@@H]1COC3=CC=CC(=C3)C)C=CS2 [RU-SKI 43] + C[C@@H](Oc1cc(-c2cnn(C3CCNCC3)c2)cnc1N)c1c(Cl)ccc(F)c1Cl [Crizotinib] (partner 1 µM)
Summary of the method: as §1

## NCI-H2087
Irinotecan + Pictilisib; first compound 0.6325 µM
  relative viability: 0.311
Irinotecan + Pictilisib; first compound 2 µM
  relative viability: 0.288
Irinotecan + Pictilisib; first compound 6.325 µM
  relative viability: 0.233
Irinotecan + Pictilisib; first compound 20 µM
  relative viability: 0.264
RU-SKI 43 + Trametinib; first compound 0.1 µM
  relative viability: 0.233
RU-SKI 43 + Trametinib; first compound 0.3162 µM
  relative viability: 0.159
RU-SKI 43 + Trametinib; first compound 1 µM
  relative viability: 0.221
RU-SKI 43 + Trametinib; first compound 3.162 µM
  relative viability: 0.189
RU-SKI 43 + Trametinib; first compound 10 µM
  relative viability: 0.161
Irinotecan + Olaparib; first compound 0.6325 µM
  relative viability: 0.175
Irinotecan + Olaparib; first compound 2 µM
  relative viability: 0.196
Irinotecan + Olaparib; first compound 6.325 µM
  relative viability: 0.154
Irinotecan + Olaparib; first compound 20 µM
  relative viability: 0.173
RU-SKI 43 + Crizotinib; first compound 0.1 µM
  relative viability: 0.837
RU-SKI 43 + Crizotinib; first compound 0.3162 µM
  relative viability: 1.12
RU-SKI 43 + Crizotinib; first compound 1 µM
  relative viability: 0.915
RU-SKI 43 + Crizotinib; first compound 3.162 µM
  relative viability: 0.783
RU-SKI 43 + Crizotinib; first compound 10 µM
  relative viability: 0.733

## EMC-BAC-2
Irinotecan + Pictilisib; first compound 0.6325 µM
  relative viability: 0.37
Irinotecan + Pictilisib; first compound 2 µM
  relative viability: 0.373
Irinotecan + Pictilisib; first compound 6.325 µM
  relative viability: 0.234
Irinotecan + Pictilisib; first compound 20 µM
  relative viability: 0.223
RU-SKI 43 + Trametinib; first compound 0.1 µM
  relative viability: 0.857
RU-SKI 43 + Trametinib; first compound 0.3162 µM
  relative viability: 0.9
RU-SKI 43 + Trametinib; first compound 1 µM
  relative viability: 0.939
RU-SKI 43 + Trametinib; first compound 3.162 µM
  relative viability: 0.861
RU-SKI 43 + Trametinib; first compound 10 µM
  relative viability: 0.749
Irinotecan + Olaparib; first compound 0.6325 µM
  relative viability: 0.276
Irinotecan + Olaparib; first compound 2 µM
  relative viability: 0.292
Irinotecan + Olaparib; first compound 6.325 µM
  relative viability: 0.274
Irinotecan + Olaparib; first compound 20 µM
  relative viability: 0.158
RU-SKI 43 + Crizotinib; first compound 0.1 µM
  relative viability: 0.789
RU-SKI 43 + Crizotinib; first compound 0.3162 µM
  relative viability: 0.793
RU-SKI 43 + Crizotinib; first compound 1 µM
  relative viability: 0.811
RU-SKI 43 + Crizotinib; first compound 3.162 µM
  relative viability: 0.828
RU-SKI 43 + Crizotinib; first compound 10 µM
  relative viability: 0.751

## SW 900
RU-SKI 43 + Trametinib; first compound 0.1 µM
  relative viability: 0.818
RU-SKI 43 + Trametinib; first compound 0.3162 µM
  relative viability: 0.76
RU-SKI 43 + Trametinib; first compound 1 µM
  relative viability: 1.03
RU-SKI 43 + Trametinib; first compound 3.162 µM
  relative viability: 1.02
RU-SKI 43 + Trametinib; first compound 10 µM
  relative viability: 0.594
Irinotecan + Olaparib; first compound 2 µM
  relative viability: 0.474
Irinotecan + Olaparib; first compound 6.325 µM
  relative viability: 0.334
Irinotecan + Olaparib; first compound 20 µM
  relative viability: 0.384

## NCI-H647
Irinotecan + Pictilisib; first compound 2 µM
  relative viability: 0.65
Irinotecan + Pictilisib; first compound 6.325 µM
  relative viability: 0.219
Irinotecan + Pictilisib; first compound 20 µM
  relative viability: 0.208
RU-SKI 43 + Trametinib; first compound 0.1 µM
  relative viability: 0.445
RU-SKI 43 + Trametinib; first compound 0.3162 µM
  relative viability: 0.57
RU-SKI 43 + Trametinib; first compound 1 µM
  relative viability: 0.472
RU-SKI 43 + Trametinib; first compound 3.162 µM
  relative viability: 0.521
RU-SKI 43 + Trametinib; first compound 10 µM
  relative viability: 0.439
Irinotecan + Olaparib; first compound 0.6325 µM
  relative viability: 0.194
Irinotecan + Olaparib; first compound 2 µM
  relative viability: 0.205
Irinotecan + Olaparib; first compound 6.325 µM
  relative viability: 0.14
Irinotecan + Olaparib; first compound 20 µM
  relative viability: 0.0986
RU-SKI 43 + Crizotinib; first compound 0.1 µM
  relative viability: 1.29
RU-SKI 43 + Crizotinib; first compound 0.3162 µM
  relative viability: 1.23
RU-SKI 43 + Crizotinib; first compound 1 µM
  relative viability: 1.15
RU-SKI 43 + Crizotinib; first compound 3.162 µM
  relative viability: 1.14
RU-SKI 43 + Crizotinib; first compound 10 µM
  relative viability: 0.833

## NCI-H520
Irinotecan + Pictilisib; first compound 0.6325 µM
  relative viability: 0.225
Irinotecan + Pictilisib; first compound 2 µM
  relative viability: 0.324
Irinotecan + Pictilisib; first compound 6.325 µM
  relative viability: 0.201
Irinotecan + Pictilisib; first compound 20 µM
  relative viability: 0.152
RU-SKI 43 + Trametinib; first compound 0.1 µM
  relative viability: 0.79
RU-SKI 43 + Trametinib; first compound 0.3162 µM
  relative viability: 1.02
RU-SKI 43 + Trametinib; first compound 1 µM
  relative viability: 0.654
RU-SKI 43 + Trametinib; first compound 3.162 µM
  relative viability: 0.794
RU-SKI 43 + Trametinib; first compound 10 µM
  relative viability: 0.45
Irinotecan + Olaparib; first compound 0.6325 µM
  relative viability: 0.23
Irinotecan + Olaparib; first compound 2 µM
  relative viability: 0.277
Irinotecan + Olaparib; first compound 6.325 µM
  relative viability: 0.309
Irinotecan + Olaparib; first compound 20 µM
  relative viability: 0.145
RU-SKI 43 + Crizotinib; first compound 0.1 µM
  relative viability: 0.858
RU-SKI 43 + Crizotinib; first compound 0.3162 µM
  relative viability: 0.874
RU-SKI 43 + Crizotinib; first compound 1 µM
  relative viability: 1.09
RU-SKI 43 + Crizotinib; first compound 3.162 µM
  relative viability: 0.706
RU-SKI 43 + Crizotinib; first compound 10 µM
  relative viability: 0.616

## IA-LM
Irinotecan + Pictilisib; first compound 0.6325 µM
  relative viability: 0.367
Irinotecan + Pictilisib; first compound 2 µM
  relative viability: 0.234
Irinotecan + Pictilisib; first compound 6.325 µM
  relative viability: 0.265
Irinotecan + Pictilisib; first compound 20 µM
  relative viability: 0.116
Irinotecan + Olaparib; first compound 0.6325 µM
  relative viability: 0.537
Irinotecan + Olaparib; first compound 2 µM
  relative viability: 0.177
Irinotecan + Olaparib; first compound 6.325 µM
  relative viability: 0.166
Irinotecan + Olaparib; first compound 20 µM
  relative viability: 0.0811
RU-SKI 43 + Crizotinib; first compound 0.1 µM
  relative viability: 0.759
RU-SKI 43 + Crizotinib; first compound 0.3162 µM
  relative viability: 0.797
RU-SKI 43 + Crizotinib; first compound 1 µM
  relative viability: 0.663
RU-SKI 43 + Crizotinib; first compound 3.162 µM
  relative viability: 0.736
RU-SKI 43 + Crizotinib; first compound 10 µM
  relative viability: 0.64

## LC-2-ad
Irinotecan + Pictilisib; first compound 0.6325 µM
  relative viability: 0.146
Irinotecan + Pictilisib; first compound 2 µM
  relative viability: 0.315
Irinotecan + Pictilisib; first compound 6.325 µM
  relative viability: 0.231
Irinotecan + Pictilisib; first compound 20 µM
  relative viability: 0.116
RU-SKI 43 + Trametinib; first compound 0.1 µM
  relative viability: 0.951
RU-SKI 43 + Trametinib; first compound 0.3162 µM
  relative viability: 1.08
RU-SKI 43 + Trametinib; first compound 1 µM
  relative viability: 0.985
RU-SKI 43 + Trametinib; first compound 3.162 µM
  relative viability: 0.928
RU-SKI 43 + Trametinib; first compound 10 µM
  relative viability: 0.847
Irinotecan + Olaparib; first compound 0.6325 µM
  relative viability: 0.389
Irinotecan + Olaparib; first compound 2 µM
  relative viability: 0.337
Irinotecan + Olaparib; first compound 6.325 µM
  relative viability: 0.282
Irinotecan + Olaparib; first compound 20 µM
  relative viability: 0.24
RU-SKI 43 + Crizotinib; first compound 0.1 µM
  relative viability: 0.443
RU-SKI 43 + Crizotinib; first compound 0.3162 µM
  relative viability: 0.392
RU-SKI 43 + Crizotinib; first compound 1 µM
  relative viability: 0.535
RU-SKI 43 + Crizotinib; first compound 10 µM
  relative viability: 0.43

## EKVX
Irinotecan + Pictilisib; first compound 0.6325 µM
  relative viability: 0.503
Irinotecan + Pictilisib; first compound 2 µM
  relative viability: 0.421
Irinotecan + Pictilisib; first compound 6.325 µM
  relative viability: 0.224
Irinotecan + Pictilisib; first compound 20 µM
  relative viability: 0.163
RU-SKI 43 + Trametinib; first compound 0.1 µM
  relative viability: 0.275
RU-SKI 43 + Trametinib; first compound 0.3162 µM
  relative viability: 0.312
RU-SKI 43 + Trametinib; first compound 1 µM
  relative viability: 0.268
RU-SKI 43 + Trametinib; first compound 3.162 µM
  relative viability: 0.349
RU-SKI 43 + Trametinib; first compound 10 µM
  relative viability: 0.315
Irinotecan + Olaparib; first compound 2 µM
  relative viability: 0.539
Irinotecan + Olaparib; first compound 6.325 µM
  relative viability: 0.275
Irinotecan + Olaparib; first compound 20 µM
  relative viability: 0.224
RU-SKI 43 + Crizotinib; first compound 0.1 µM
  relative viability: 0.902
RU-SKI 43 + Crizotinib; first compound 0.3162 µM
  relative viability: 1.01
RU-SKI 43 + Crizotinib; first compound 1 µM
  relative viability: 0.926
RU-SKI 43 + Crizotinib; first compound 3.162 µM
  relative viability: 0.987
RU-SKI 43 + Crizotinib; first compound 10 µM
  relative viability: 0.713
